Measured values published in PubChem BioAssay (NCI).
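Where inhibition never reached the appropriate level, the endpoint shown equals the highest concentration tested. Otherwise, values were interpolated linearly from a five-concentration, 48-hour dose response in 96-well plates. At the TGI there is no net growth.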

Tests used:
Assay in all cases: NCI anticancer screen, dose series, 48 h
[1] = test system: RXF 393 renal
[2] = test system: HT29 colon
[3] = test system: SN12C renal
[4] = test system: BT-549 breast
[5] = test system: 786-0 renal
[6] = test system: A549 NSCLC
[7] = test system: MDA-MB-231 breast
[8] = test system: COLO 205 colon
[9] = test system: NCI-H23 lung
[10] = test system: NCI-H226 lung
[11] = test system: EKVX NSCLC
[12] = test system: LOX IMVI melanoma
[13] = test system: MALME-3M melanoma
[14] = test system: HCT-15 colon
[15] = test system: TK-10 renal
[16] = test system: UACC-257 melanoma
[17] = test system: UO-31 renal
[18] = test system: MOLT-4 leukemia
[19] = test system: SF-268 CNS
[20] = test system: SW-620 colon
[21] = test system: SK-OV-3 ovarian
[22] = test system: CCRF-CEM leukemia
[23] = test system: SK-MEL-5 melanoma
[24] = test system: IGROV1 ovarian
[25] = test system: RPMI-8226 leukemia
[26] = test system: T-47D breast
[27] = test system: PC-3 prostate
[28] = test system: UACC-62 melanoma
[29] = test system: OVCAR-8 ovarian
[30] = test system: M14 melanoma
[31] = test system: MCF7 breast
[32] = test system: MDA-N
[33] = test system: HOP-62 NSCLC
[34] = test system: ACHN renal
[35] = test system: KM12 colon
[36] = test system: SK-MEL-28 melanoma
[37] = test system: CAKI-1 renal
[38] = test system: NCI-H522 lung
[39] = test system: MDA-MB-435
[40] = test system: HCC-2998 colon
[41] = test system: HCT-116 colon
[42] = test system: SNB-19 CNS
[43] = test system: NCI-H460 lung
[44] = test system: OVCAR-3 ovarian
[45] = test system: U251 CNS
[46] = test system: SF-295 CNS
[47] = test system: DU-145 prostate
[48] = test system: OVCAR-5 ovarian
[49] = test system: NCI/ADR-RES ovarian
[50] = test system: SK-MEL-2 melanoma
[51] = test system: OVCAR-4 ovarian
[52] = test system: HS 578T breast
[53] = test system: A498 renal
[54] = test system: K-562 leukemia
[55] = test system: SR leukemia
[56] = test system: HL-60(TB) leukemia
[57] = test system: SNB-75 CNS
[58] = test system: SF-539 CNS
[59] = test system: HOP-92 NSCLC

Measured: TGI

O=C(O)c1cccc(CN2CCCCC2)c1
> 100 µM: [1] | [2] | [3] | [4] | [5] | [6] | [7] | [8] | [9] | [10] | [11] | [12] | [13] | [14] | [15] | [16] | [17] | [18] | [19] | [20] | [21] | [22] | [23] | [24] | [25] | [26] | [27] | [28] | [29] | [30] | [31] | [32] | [33] | [34] | [35] | [36] | [37] | [38] | [39] | [40] | [41] | [42] | [43] | [44] | [45] | [46] | [47] | [48] | [49] | [50] | [51] | [52] | [53] | [54]

COC(=O)c1ccccc1C1CN=NC12Cc1c(C)cccc1C2=O (configuration not stated)
> 100 µM: [1] | [55] | [2] | [3] | [4] | [5] | [6] | [7] | [8] | [9] | [10] | [11] | [12] | [13] | [14] | [15] | [56] | [16] | [17] | [18] | [19] | [20] | [21] | [22] | [23] | [24] | [25] | [26] | [28] | [29] | [30] | [31] | [32] | [33] | [34] | [35] | [36] | [37] | [38] | [39] | [40] | [41] | [42] | [43] | [44] | [45] | [46] | [47] | [48] | [49] | [57] | [50] | [51] | [58] | [52] | [53] | [54] | [59]
